Reference: US12527777B2, “Sustained release pyridostigmine compositions” (priority 2018, dated 2026)

Experiments:
[1] = in vivo; cited from earlier work
[2] = Effect of relative humidity on adsorption of water vapour (deliquescence); format: physicochemical

## CN(C)C(=O)Oc1ccc[n+](C)c1 [Pyridostigmine, (1-methylpyridin-1-ium-3-yl) N,N-dimethylcarbamate]
[1]
  biological half-life: 2-3 hours

## CN(C)C(=O)Oc1ccc[n+](C)c1 [pyridostigmine bromide]
[2]
  relative humidity (RH) at which deliquescence is exhibited: 33%
